{
  "source": "patent EP0435794A1",
  "about": "“Alkenyl- or heteroaryl thio, sulfone, sulfoxy herbicides” (RHONE-POULENC AGROCHIMIE, priority 1989, dated 1991); for Notation de l'activité herbicide GLY: ranges in brackets are in %; for Notation de l'activité herbicide ORY: ranges in brackets are in %; for Notation de l'activité herbicide TRZ: ranges in brackets are in %; for Notation de l'activité herbicide ZEA: ranges in brackets are in %",
  "assay_type_in_all_cases": "in vivo",
  "key": {"Avena fatua": {"test_system": "Avena fatua", "experiment": "Exemple A: herbicide application, pre-emergence", "details": "notation 0 à 5 after 24 days", "from_the_text": "(§1) Exemple A - Application herbicide, en prélevée des espèces végétales\n(§2) Dans des pots de 7 x 7 x 8 cm remplis de terre agricole légère, on sème un nombre de graines déterminé en fonction de l'espèce végétale et de la grosseur de la graine.\n(§3) Les pots sont traités par pulvérisation de bouillie en quantité correspondant à une dose volumique d'application de 500 l/ha et contenant la matière active à la concentration désirée.\n(§4) Le traitement avec la bouillie est donc effectué sur des graines non recouvertes de terre (on utilise le terme de bouillie pour désigner, en général, les compositions diluées à l'eau, telles qu'on les applique sur les végétaux).\n(§5) La bouillie utilisée pour le traitement est une solution ou suspension de la matière active dans un mélange acétone/eau en proportions 50/50, en présence de 0,05 % en poids de cemulsol NP 10 (agent tensio-actif) constitué d'alkylphénol polyéthoxylé, notamment de nonylphénol polyéthoxylé) et 0,04 % en poids de tween 20 (agent tensio-actif constitué d'un oléate de dérivé polyoxyéthyléné du sorbitol).\n(§6) Dans le cas d'une suspension, celle-ci est obtenue en mélangeant et broyant les ingrédients dans un microniseur de façon à obtenir une grosseur moyenne de particules inférieure à 40 microns.\n(§7) Après traitement, on recouvre les graines d'une couche de terre d'environ 3 mm d'épaisseur.\n(§8) Les pots sont alors placés dans des bacs destinés à recevoir l'eau d'arrosage, en subirrigation, et maintenus pendant 24 jours à température ambiante sous 70 % d'humidité relative.\n(§9) Le relevé est effectué de la façon suivante:\n(§10) Au bout de 24 jours, on mesure un pourcentage (D) des destructions du nombre de pieds dans le pot traité par rapport au nombre de plantes dans les pots non traités (témoin). On mesure, sur les plantes traitées restantes, le pourcentage de réduction de taille (RT) par rapport aux plantes témoin.\n(§11) Le pourcentage du volume foliaire non détruit par le produit est donc donné par la formule: ([100-D] x [100-RT])/(100)= A [formula]\n(§12) Cette valeur A est transformée en notation de 0 à 5 selon l'échelle suivante:\n(§13) Les résultats obtenus sont présentés après l'exemple B pour des doses d'application de 4000 g/ha à 1000 g/ha.\n(§14) Les espèces végétales utilisées dans ces exemples A et B sont: […]"}, "Echinochloa crus galli": {"test_system": "Echinochloa crus galli", "experiment": "Exemple A: herbicide application, pre-emergence", "details": "notation 0 à 5 after 24 days", "from_the_text": "as §1, §2, §3, §4, §5, §6, §7, §8, §9, §10, §11, §12, §13, §14"}, "Digitaria sanguinalis [1]": {"test_system": "Digitaria sanguinalis", "experiment": "Exemple A: herbicide application, pre-emergence", "details": "notation 0 à 5 after 24 days", "from_the_text": "as §1, §2, §3, §4, §5, §6, §7, §8, §9, §10, §11, §12, §13, §14"}, "Alopecurus myosuroïdes": {"test_system": "Alopecurus myosuroïdes", "experiment": "Exemple A: herbicide application, pre-emergence", "details": "notation 0 à 5 after 24 days", "from_the_text": "as §1, §2, §3, §4, §5, §6, §7, §8, §9, §10, §11, §12, §13, §14"}, "Cyperus esculentus": {"test_system": "Cyperus esculentus", "experiment": "Exemple A: herbicide application, pre-emergence", "details": "notation 0 à 5 after 24 days", "from_the_text": "as §1, §2, §3, §4, §5, §6, §7, §8, §9, §10, §11, §12, §13, §14"}, "blé": {"test_system": "blé", "experiment": "Exemple C: selectivity test in field crops, pre-emergence (crop)", "details": "dose 2 Kg m.a./ha, 24 days, 0 or 1 = selective", "from_the_text": "(§15) Exemple C - Essai de sélectivité en grandes cultures avec application herbicide, en prélevée des espèces végétales\n(§16) Dans des pots de 7 X 7 X 8 cm remplis de terre agricole légère, on sème un nombre de graines déterminé en fonction de l'espèce végétale et de la grosseur de la graine.\n(§17) On recouvre ensuite les graines d'une couche de terre d'environ 3 mm d'épaisseur.\n(§18) Les pots sont alors traités par pulvérisation de bouillie en quantité correspondant à une dose volumique d'application de 500 l/ha et contenant la matière active à la concentration désirée.\n(§19) La bouillie a été préparée de la même manière qu'à l'exemple A.\n(§20) Les pots traités sont ensuite placés dans des bacs destinés à recevoir l'eau d'arrosage, en subirrigation, et maintenus pendant 24 jours à température ambiante sous 70 % d'humidité relative.\nas §9\n(§21) Au bout de 24 jours, on mesure un pourcentage (D) de destruction du nombre de pieds dans le pot traité par rapport au nombre de plantes dans les pots non traités (témoin). On mesure, sur les plantes traitées restantes, le pourcentage de réduction de taille (RT) par rapport aux plantes témoins.\n(§22) Le pourcentage de volume foliaire non détruit par le produit est donc donné par la formule: ([100-D] X [100-RT])/(100)= A [formula]\nas §12\n(§23) Ainsi, un produit est jugé comme sélectif vis à vis de la culture lorsque la valeur A notée est de 0 ou 1.\n(§24) Les résultats obtenus sont présentés dans l'exemple C pour des doses d'application de 500, 1000, 2000 ou 4000 g de matière active par hectare selon les produits.\n(§25) Les espèces végétales utilisées dans cet exemple sont:\n(§26) Comme on peut le voir sur le tableau de résultats de cet exemple C, de nombreux produits présentent une excellente activité antigraminée de prélevée tout en montrant une excellente sélectivité pour 1 ou 2 ou 3 ou 4 des 4 cultures testées = blé, maïs, riz, soja."}, "soja": {"test_system": "soja", "experiment": "Exemple C: selectivity test in field crops, pre-emergence (crop)", "details": "dose 2 Kg m.a./ha, 24 days, 0 or 1 = selective", "from_the_text": "as §15, §16, §17, §18, §19, §20, §9, §21, §22, §12, §23, §24, §25, §26"}, "maïs": {"test_system": "maïs", "experiment": "Exemple C: selectivity test in field crops, pre-emergence (crop)", "details": "dose 2 Kg m.a./ha, 24 days, 0 or 1 = selective", "from_the_text": "as §15, §16, §17, §18, §19, §20, §9, §21, §22, §12, §23, §24, §25, §26"}, "riz": {"test_system": "riz", "experiment": "Exemple C: selectivity test in field crops, pre-emergence (crop)", "details": "dose 2 Kg m.a./ha, 24 days, 0 or 1 = selective", "from_the_text": "as §15, §16, §17, §18, §19, §20, §9, §21, §22, §12, §23, §24, §25, §26"}, "Panicum milicaeum": {"test_system": "Panicum milicaeum", "experiment": "Exemple C: selectivity test in field crops, pre-emergence (weed)", "details": "dose 2 Kg m.a./ha, 24 days", "from_the_text": "as §15, §16, §17, §18, §19, §20, §9, §21, §22, §12, §23, §24\n(§27) Les espèces végétales utilisées dans cet exemple sont: […]"}, "Setaria faberii": {"test_system": "Setaria faberii", "experiment": "Exemple C: selectivity test in field crops, pre-emergence (weed)", "details": "dose 2 Kg m.a./ha, 24 days", "from_the_text": "as §15, §16, §17, §18, §19, §20, §9, §21, §22, §12, §23, §24, §27"}, "Digitaria sanguinalis [2]": {"test_system": "Digitaria sanguinalis", "experiment": "Exemple C: selectivity test in field crops, pre-emergence (weed)", "details": "dose 2 Kg m.a./ha, 24 days", "from_the_text": "as §15, §16, §17, §18, §19, §20, §9, §21, §22, §12, §23, §24, §27"}, "Alopecurus myosuroides": {"test_system": "Alopecurus myosuroides", "experiment": "Exemple C: selectivity test in field crops, pre-emergence (weed)", "details": "dose 2 Kg m.a./ha, 24 days", "from_the_text": "as §15, §16, §17, §18, §19, §20, §9, §21, §22, §12, §23, §24, §27"}, "Sorghum halepense": {"test_system": "Sorghum halepense", "experiment": "Exemple C: selectivity test in field crops, pre-emergence (weed)", "details": "dose 2 Kg m.a./ha, 24 days", "from_the_text": "as §15, §16, §17, §18, §19, §20, §9, §21, §22, §12, §23, §24, §27"}, "Echinochloa crus-galli": {"test_system": "Echinochloa crus-galli", "experiment": "Exemple C: selectivity test in field crops, pre-emergence (weed)", "details": "dose 2 Kg m.a./ha, 24 days", "from_the_text": "as §15, §16, §17, §18, §19, §20, §9, §21, §22, §12, §23, §24, §27"}},
  "data": [
    {"smiles": "C=C(CS(=O)(=O)c1cccs1)c1cc(F)cc(F)c1", "note": "[compound 7, 2-(3,5-difluorophényl) 1-(2-thiénylsulfonyl) 2-propène]", "values": [
      {"measurement": "ACTIVITE HERBICIDE DE PRELEVEE AVE", "setting": "Avena fatua; dose 1 Kg m.a./ha", "value": "1 (70 à 90)"},
      {"measurement": "ACTIVITE HERBICIDE DE PRELEVEE ECH", "setting": "Echinochloa crus galli; dose 1 Kg m.a./ha", "value": "5 (O à 10)"},
      {"measurement": "ACTIVITE HERBICIDE DE PRELEVEE DIG", "setting": "Digitaria sanguinalis [1]; dose 1 Kg m.a./ha", "value": "5 (O à 10)"},
      {"measurement": "ACTIVITE HERBICIDE DE PRELEVEE ALO", "setting": "Alopecurus myosuroïdes; dose 1 Kg m.a./ha", "value": "5 (O à 10)"},
      {"measurement": "ACTIVITE HERBICIDE DE PRELEVEE CYP", "setting": "Cyperus esculentus; dose 1 Kg m.a./ha", "value": "1 (70 à 90)"}
    ]},
    {"smiles": "C=C(CS(=O)(=O)c1sccc1Br)c1cccc(F)c1", "note": "[compound 9, 1-[(3-bromo 2-thiényl)sulfonyl] 2-(3-fluorophényl)2-propène]", "values": [
      {"measurement": "ACTIVITE HERBICIDE DE PRELEVEE AVE", "setting": "Avena fatua; dose 4 Kg m.a./ha", "value": "5 (O à 10)"},
      {"measurement": "ACTIVITE HERBICIDE DE PRELEVEE ECH", "setting": "Echinochloa crus galli; dose 4 Kg m.a./ha", "value": "5 (O à 10)"},
      {"measurement": "ACTIVITE HERBICIDE DE PRELEVEE DIG", "setting": "Digitaria sanguinalis [1]; dose 4 Kg m.a./ha", "value": "5 (O à 10)"},
      {"measurement": "ACTIVITE HERBICIDE DE PRELEVEE ALO", "setting": "Alopecurus myosuroïdes; dose 4 Kg m.a./ha", "value": "5 (O à 10)"},
      {"measurement": "ACTIVITE HERBICIDE DE PRELEVEE CYP", "setting": "Cyperus esculentus; dose 4 Kg m.a./ha", "value": "4 (10 à 30)"}
    ]},
    {"smiles": "C=C(CS(=O)(=O)C=C(C)C)c1ccccc1", "note": "[compound 73]", "values": [
      {"measurement": "Notation de l'activité herbicide TRZ", "setting": "blé", "value": "1 (70 à 90)"},
      {"measurement": "Notation de l'activité herbicide GLY", "setting": "soja", "value": "0 (90 à 100)"},
      {"measurement": "Notation de l'activité herbicide ZEA", "setting": "maïs", "value": "2 (50 à 70)"},
      {"measurement": "Notation de l'activité herbicide ORY", "setting": "riz", "value": "0 (90 à 100)"},
      {"measurement": "Notation de l'activité herbicide PAN", "setting": "Panicum milicaeum", "value": "3 (30 à 50)"},
      {"measurement": "Notation de l'activité herbicide SET", "setting": "Setaria faberii", "value": "0 (90 à 100)"},
      {"measurement": "Notation de l'activité herbicide DIG", "setting": "Digitaria sanguinalis [2]", "value": "3 (30 à 50)"},
      {"measurement": "Notation de l'activité herbicide ALO", "setting": "Alopecurus myosuroides", "value": "4 (10 à 30)"},
      {"measurement": "Notation de l'activité herbicide SOR", "setting": "Sorghum halepense", "value": "3 (30 à 50)"},
      {"measurement": "Notation de l'activité herbicide ECh", "setting": "Echinochloa crus-galli", "value": "5 (O à 10)"}
    ]}
  ]
}
